# Assay results reported in patent publication US11713338B2, “Cyclic peptides multimers targeting α-4-β-7 integrin” (priority 2016, dated 2023).
# Assays:
# [1] = molecular target: T1, integrin α4β7 (RPMI8866 human cells adhering to MAdCAM-1) (Homo sapiens, UniProt P13612+P26010); test: Integrin α4β7-MAdCAM cell adhesion assay (RPMI8866 cells); assay type: cell-based; details: RPMI8866 cells adhering to MAdCAM; read-out: RPMI8866 Adhesion α4β7/MAdCAM IC50
# T1 construct: RMP18866 cells, which express integrin α4β7; host or cells: RPMI8866
# T1 sequence (P13612 34-1032): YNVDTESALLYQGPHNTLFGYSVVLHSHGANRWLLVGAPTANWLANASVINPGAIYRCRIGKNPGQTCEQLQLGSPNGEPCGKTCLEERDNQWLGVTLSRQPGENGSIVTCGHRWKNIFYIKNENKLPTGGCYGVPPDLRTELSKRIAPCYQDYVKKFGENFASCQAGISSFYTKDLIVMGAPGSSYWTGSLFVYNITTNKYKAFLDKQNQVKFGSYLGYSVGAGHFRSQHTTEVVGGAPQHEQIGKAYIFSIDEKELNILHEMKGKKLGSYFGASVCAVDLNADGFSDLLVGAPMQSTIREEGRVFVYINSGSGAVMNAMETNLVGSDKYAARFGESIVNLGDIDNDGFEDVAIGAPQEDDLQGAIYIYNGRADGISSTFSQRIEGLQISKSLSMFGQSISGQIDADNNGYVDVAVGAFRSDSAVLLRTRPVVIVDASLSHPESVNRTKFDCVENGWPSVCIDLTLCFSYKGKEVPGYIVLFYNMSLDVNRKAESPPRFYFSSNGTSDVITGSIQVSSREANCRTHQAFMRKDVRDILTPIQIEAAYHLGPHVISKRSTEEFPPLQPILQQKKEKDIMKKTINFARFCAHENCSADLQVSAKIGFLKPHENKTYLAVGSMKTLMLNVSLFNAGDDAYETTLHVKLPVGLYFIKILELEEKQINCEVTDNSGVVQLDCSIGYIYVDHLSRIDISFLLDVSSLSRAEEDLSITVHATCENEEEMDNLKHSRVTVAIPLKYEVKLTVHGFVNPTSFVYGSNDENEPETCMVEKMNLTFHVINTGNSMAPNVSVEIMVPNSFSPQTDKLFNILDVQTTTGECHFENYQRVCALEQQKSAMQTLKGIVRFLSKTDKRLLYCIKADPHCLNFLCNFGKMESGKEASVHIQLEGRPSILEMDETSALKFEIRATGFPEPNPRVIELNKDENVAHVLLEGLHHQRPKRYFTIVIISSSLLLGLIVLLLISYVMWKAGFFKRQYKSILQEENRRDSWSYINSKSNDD
# T1 sequence (P26010 20-798): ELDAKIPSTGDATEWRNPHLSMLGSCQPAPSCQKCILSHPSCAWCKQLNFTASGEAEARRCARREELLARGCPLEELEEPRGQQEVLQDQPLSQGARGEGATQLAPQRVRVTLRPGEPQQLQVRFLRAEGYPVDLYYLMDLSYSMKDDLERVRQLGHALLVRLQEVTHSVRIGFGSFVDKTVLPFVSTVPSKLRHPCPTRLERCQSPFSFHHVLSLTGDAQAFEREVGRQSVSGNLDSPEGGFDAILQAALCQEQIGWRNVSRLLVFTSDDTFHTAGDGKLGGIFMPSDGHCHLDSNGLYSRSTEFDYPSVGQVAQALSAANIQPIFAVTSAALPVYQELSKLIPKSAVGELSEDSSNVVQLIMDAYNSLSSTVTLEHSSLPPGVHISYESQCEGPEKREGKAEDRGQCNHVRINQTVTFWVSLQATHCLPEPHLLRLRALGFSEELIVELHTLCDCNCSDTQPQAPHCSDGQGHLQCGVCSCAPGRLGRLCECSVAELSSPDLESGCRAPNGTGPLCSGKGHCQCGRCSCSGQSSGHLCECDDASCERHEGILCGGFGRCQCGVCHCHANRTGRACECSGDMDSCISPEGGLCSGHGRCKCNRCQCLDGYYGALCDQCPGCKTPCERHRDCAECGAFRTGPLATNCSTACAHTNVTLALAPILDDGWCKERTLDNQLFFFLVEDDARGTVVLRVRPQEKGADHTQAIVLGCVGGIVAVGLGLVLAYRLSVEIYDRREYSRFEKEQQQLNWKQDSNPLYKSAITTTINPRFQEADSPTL
# Procedure, shortened: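 Adhesion was read by calcein fluorescence. RPMI8866 cells were labelled at 10 million cells/ml with […] calcein (37° C., 30 min) and washed twice in PBS before reading. Dose-response values were corrected by subtracting cell-free control well fluorescence.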
# [2] = molecular target: T2, integrin α4β1 (RAMOS human cells adhering to VCAM-1) (Homo sapiens, UniProt P05556+P13612); test: Integrin α4β1-VCAM cell adhesion assay (RAMOS cells); assay type: cell-based; details: for IC50: Ramos cells adhering to VCAM, read-out: Ramos Adhesion α4β1/VCAM IC50; for Ratio Ramos/RPMI: ratio of cell adhesion IC50s, Ramos α4β1/VCAM over RPMI8866 α4β7/MAdCAM
# T2 construct: Ramos cells, which express integrin α4β1; host or cells: RAMOS
# T2 sequence (P05556 21-798, one chain of several): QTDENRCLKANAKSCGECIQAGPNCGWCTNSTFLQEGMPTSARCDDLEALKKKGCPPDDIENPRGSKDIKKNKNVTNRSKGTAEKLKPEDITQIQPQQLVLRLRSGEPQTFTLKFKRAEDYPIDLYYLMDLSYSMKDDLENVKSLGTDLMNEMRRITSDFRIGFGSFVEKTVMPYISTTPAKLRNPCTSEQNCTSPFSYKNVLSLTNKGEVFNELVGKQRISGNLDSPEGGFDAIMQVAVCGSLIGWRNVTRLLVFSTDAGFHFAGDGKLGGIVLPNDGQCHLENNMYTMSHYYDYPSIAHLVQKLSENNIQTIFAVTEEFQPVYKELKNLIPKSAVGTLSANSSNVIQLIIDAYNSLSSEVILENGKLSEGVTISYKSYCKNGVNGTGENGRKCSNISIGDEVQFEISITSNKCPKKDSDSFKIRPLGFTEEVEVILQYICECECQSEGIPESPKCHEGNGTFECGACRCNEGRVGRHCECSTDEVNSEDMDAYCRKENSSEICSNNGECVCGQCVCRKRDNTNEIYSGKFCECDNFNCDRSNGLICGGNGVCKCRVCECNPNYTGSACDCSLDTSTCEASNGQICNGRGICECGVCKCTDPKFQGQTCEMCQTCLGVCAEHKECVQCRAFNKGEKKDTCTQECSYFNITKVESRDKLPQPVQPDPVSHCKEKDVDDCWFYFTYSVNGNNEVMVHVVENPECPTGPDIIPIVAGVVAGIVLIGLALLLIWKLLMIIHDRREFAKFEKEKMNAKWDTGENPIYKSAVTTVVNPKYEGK
# Experimental: Integrin α4β1-VCAM Cell Adhesion Assay
# The plate was incubated overnight at 4° C. and washed twice with 150 μl per well wash buffer (0.05% Tween 20 in PBS), blocked with 250 μl per well blocking buffer (1% non-fat dry milk in PBS), for 1 hour at room temperature. During blocking step, RAMOS cells were resuspended at 10 million cells/ml in PBS containing […] and incubated at 37° C. for 30 min in a 50 ml tube. […] The plate was emptied by inverting and blotting on paper towels and washed manually twice with PBS. […] To calculate the dose response, the fluorescence value of control wells not containing cells was subtracted from each test well.
SMILES,IC50 [1] [nM],IC50 [2] [nM],Ratio Ramos/RPMI [2]
CC(C)C[C@@H]1NC(=O)c2ccc(-c3ccc(N4CCN(C(=O)C5(C(=O)N6CCN(c7ccc(-c8ccc9cc8CNC(=O)[C@@H]8CCCN8[C@H](C(=O)NC(C)(C)C)[C@H](C)NC(=O)[C@H]([C@@H](C)O)NC(=O)[C@H](CC(=O)O)NC(=O)[C@H](CC(C)C)NC9=O)cc7)CC6)Cc6ccccc6C5)CC4)cc3)c(c2)CNC(=O)[C@@H]2CCCN2[C@H](C(=O)NC(C)(C)C)[C@H](C)NC(=O)[C@H]([C@@H](C)O)NC(=O)[C@H](CC(=O)O)NC1=O [Compound 461],39,1220,31
CC(C)C[C@@H]1NC(=O)c2ccc(-c3ccc(N4CCN(C(=O)c5ccc(-c6cccc(C(=O)N7CCN(c8ccc(-c9ccc%10cc9CNC(=O)[C@@H]9CCCN9[C@H](C(=O)NC(C)(C)C)[C@H](C)NC(=O)[C@H]([C@@H](C)O)NC(=O)[C@H](CC(=O)O)NC(=O)[C@H](CC(C)C)NC%10=O)cc8)CC7)n6)nc5)CC4)cc3)c(c2)CNC(=O)[C@@H]2CCCN2[C@H](C(=O)NC(C)(C)C)[C@H](C)NC(=O)[C@H]([C@@H](C)O)NC(=O)[C@H](CC(=O)O)NC1=O [Compound 466],97,3240,34
CC(C)C[C@@H]1NC(=O)c2ccc(-c3ccc(N4CCN(C(=O)c5nccnc5C(=O)N5CCN(c6ccc(-c7ccc8cc7CNC(=O)[C@@H]7CCCN7[C@H](C(=O)NC(C)(C)C)[C@H](C)NC(=O)[C@H]([C@@H](C)O)NC(=O)[C@H](CC(=O)O)NC(=O)[C@H](CC(C)C)NC8=O)cc6)CC5)CC4)cc3)c(c2)CNC(=O)[C@@H]2CCCN2[C@H](C(=O)NC(C)(C)C)[C@H](C)NC(=O)[C@H]([C@@H](C)O)NC(=O)[C@H](CC(=O)O)NC1=O [Compound 467],43,876,20
CC(C)C[C@@H]1NC(=O)c2ccc(-c3ccc(N4CCN(c5ncc([N+](=O)[O-])c(N6CCN(c7ccc(-c8ccc9cc8CNC(=O)[C@@H]8CCCN8[C@H](C(=O)NC(C)(C)C)[C@H](C)NC(=O)[C@H]([C@@H](C)O)NC(=O)[C@H](CC(=O)O)NC(=O)[C@H](CC(C)C)NC9=O)cc7)CC6)n5)CC4)cc3)c(c2)CNC(=O)[C@@H]2CCCN2[C@H](C(=O)NC(C)(C)C)[C@H](C)NC(=O)[C@H]([C@@H](C)O)NC(=O)[C@H](CC(=O)O)NC1=O [Compound 468],13,677,51
CC(C)C[C@@H]1NC(=O)c2ccc(-c3ccc(N4CCN(C(=O)c5cc(-c6ccccc6)c(C(=O)N6CCN(c7ccc(-c8ccc9cc8CNC(=O)[C@@H]8CCCN8[C@H](C(=O)NC(C)(C)C)[C@H](C)NC(=O)[C@H]([C@@H](C)O)NC(=O)[C@H](CC(=O)O)NC(=O)[C@H](CC(C)C)NC9=O)cc7)CC6)cc5-c5ccccc5)CC4)cc3)c(c2)CNC(=O)[C@@H]2CCCN2[C@H](C(=O)NC(C)(C)C)[C@H](C)NC(=O)[C@H]([C@@H](C)O)NC(=O)[C@H](CC(=O)O)NC1=O [Compound 469],5,44,–
CC(C)C[C@@H]1NC(=O)c2ccc(-c3ccc(N4CCN(C(=O)c5ccc(C(=O)N6CCN(c7ccc(-c8ccc9cc8CNC(=O)[C@@H]8CCCN8[C@H](C(=O)NC(C)(C)C)[C@H](C)NC(=O)[C@H]([C@@H](C)O)NC(=O)[C@H](CC(=O)O)NC(=O)[C@H](CC(C)C)NC9=O)cc7)CC6)s5)CC4)cc3)c(c2)CNC(=O)[C@@H]2CCCN2[C@H](C(=O)NC(C)(C)C)[C@H](C)NC(=O)[C@H]([C@@H](C)O)NC(=O)[C@H](CC(=O)O)NC1=O [Compound 470],17,1110,66
CC(C)C[C@@H]1NC(=O)c2ccc(-c3ccc(N4CCN(C(=O)c5ccc(-c6ccc(C(=O)N7CCN(c8ccc(-c9ccc%10cc9CNC(=O)[C@@H]9CCCN9[C@H](C(=O)NC(C)(C)C)[C@H](C)NC(=O)[C@H]([C@@H](C)O)NC(=O)[C@H](CC(=O)O)NC(=O)[C@H](CC(C)C)NC%10=O)cc8)CC7)cc6)cc5)CC4)cc3)c(c2)CNC(=O)[C@@H]2CCCN2[C@H](C(=O)NC(C)(C)C)[C@H](C)NC(=O)[C@H]([C@@H](C)O)NC(=O)[C@H](CC(=O)O)NC1=O [Compound 474],14,1300,95
CC(C)C[C@@H]1NC(=O)c2ccc(-c3ccc(N4CCN(CC(=O)N5CCN(c6ccc(-c7ccc8cc7CNC(=O)[C@@H]7CCCN7[C@H](C(=O)NC(C)(C)C)[C@H](C)NC(=O)[C@H]([C@@H](C)O)NC(=O)[C@H](CC(=O)O)NC(=O)[C@H](CC(C)C)NC8=O)cc6)CC5)CC4)cc3)c(c2)CNC(=O)[C@@H]2CCCN2[C@H](C(=O)NC(C)(C)C)[C@H](C)NC(=O)[C@H]([C@@H](C)O)NC(=O)[C@H](CC(=O)O)NC1=O [Compound 481],36,940,26
CC(C)C[C@@H]1NC(=O)c2ccc(-c3ccc(N4CCN(CCC(=O)N5CCN(c6ccc(-c7ccc8cc7CNC(=O)[C@@H]7CCCN7[C@H](C(=O)NC(C)(C)C)[C@H](C)NC(=O)[C@H]([C@@H](C)O)NC(=O)[C@H](CC(=O)O)NC(=O)[C@H](CC(C)C)NC8=O)cc6)CC5)CC4)cc3)c(c2)CNC(=O)[C@@H]2CCCN2[C@H](C(=O)NC(C)(C)C)[C@H](C)NC(=O)[C@H]([C@@H](C)O)NC(=O)[C@H](CC(=O)O)NC1=O [Compound 482],26,825,–
CC(C)C[C@@H]1NC(=O)c2ccc(-c3ccc(N4CCN(C(=O)C[C@@H](N)C(=O)N5CCN(c6ccc(-c7ccc8cc7CNC(=O)[C@@H]7CCCN7[C@H](C(=O)NC(C)(C)C)[C@H](C)NC(=O)[C@H]([C@@H](C)O)NC(=O)[C@H](CC(=O)O)NC(=O)[C@H](CC(C)C)NC8=O)cc6)CC5)CC4)cc3)c(c2)CNC(=O)[C@@H]2CCCN2[C@H](C(=O)NC(C)(C)C)[C@H](C)NC(=O)[C@H]([C@@H](C)O)NC(=O)[C@H](CC(=O)O)NC1=O [Compound 493],45,1250,28
CC(C)C[C@@H]1NC(=O)c2ccc(-c3ccc(N4CCN(C(=O)CC[C@H](N)C(=O)N5CCN(c6ccc(-c7ccc8cc7CNC(=O)[C@@H]7CCCN7[C@H](C(=O)NC(C)(C)C)[C@H](C)NC(=O)[C@H]([C@@H](C)O)NC(=O)[C@H](CC(=O)O)NC(=O)[C@H](CC(C)C)NC8=O)cc6)CC5)CC4)cc3)c(c2)CNC(=O)[C@@H]2CCCN2[C@H](C(=O)NC(C)(C)C)[C@H](C)NC(=O)[C@H]([C@@H](C)O)NC(=O)[C@H](CC(=O)O)NC1=O [Compound 494],50,161,3
